Assay results published in PubChem BioAssay AID330 (DTP/NCI, 2004).
Values joined by “and” are separate entries in the source; they are usually repeats but may differ in a detail not shown here. Identical values can stand only once. Inconclusive results and toxic doses are left out. The calls were made as follows: active = survival T/C of 150% or more; inactive = T/C below 125% in these data. Square brackets hold non-standard residues; d marks the D form. Peptide text beside a SMILES is read from it. * marks the point of attachment. Nle = CCCC[CH](N)C(=O)O; Cbz = O=C(OCc1ccccc1)*

Tested on: P388 leukemia ip, CD2F1 mice, survival T/C
Assay: NCI In Vivo Anticancer Drug Screen. Data for tumor model P388 Leukemia (intraperitoneal) in CD2F1 (CDF1) mice
Settings: endpoint: median survival time, higher = longer survival
Procedure, shortened: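 Mice carrying the transplanted tumor received test compound or vehicle. Survival was recorded in each group, and the value is the treated-group measurement divided by that of the vehicle-treated control group.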

[1] = dose: 50.0 mg/kg/injection, schedule: Q01DX005 (ip), vehicle: Klucel (hydroxypropylcellulose) (HPC)
[2] = dose: 100.0 mg/kg/injection, schedule: Q01DX005 (ip), vehicle: Klucel (hydroxypropylcellulose) (HPC)
[3] = dose: 200.0 mg/kg/injection, schedule: Q01DX005 (ip), vehicle: Klucel (hydroxypropylcellulose) (HPC)
[4] = dose: 50.0 mg/kg/injection, schedule: Q01DX005 (ip), vehicle: saline with Tween-80
[5] = dose: 100.0 mg/kg/injection, schedule: Q01DX005 (ip), vehicle: saline with Tween-80
[6] = dose: 200.0 mg/kg/injection, schedule: Q01DX005 (ip), vehicle: saline with Tween-80
[7] = dose: 60.0 mg/kg/injection, schedule: Q01DX005 (ip), vehicle: saline with Tween-80
[8] = dose: 120.0 mg/kg/injection, schedule: Q01DX005 (ip), vehicle: saline with Tween-80
[9] = dose: 240.0 mg/kg/injection, schedule: Q01DX005 (ip), vehicle: saline with Tween-80
[10] = dose: 100.0 mg/kg/injection, schedule: Q04DX003 (ip), vehicle: saline with Tween-80
[11] = dose: 50.0 mg/kg/injection, schedule: Q01DX009 (ip), vehicle: Klucel (hydroxypropylcellulose) (HPC)
[12] = dose: 100.0 mg/kg/injection, schedule: Q01DX009 (ip), vehicle: Klucel (hydroxypropylcellulose) (HPC)
[13] = dose: 200.0 mg/kg/injection, schedule: Q01DX009 (ip), vehicle: Klucel (hydroxypropylcellulose) (HPC)
[14] = dose: 12.5 mg/kg/injection, schedule: Q01DX009 (ip), vehicle: saline with Tween-80
[15] = dose: 25.0 mg/kg/injection, schedule: Q01DX009 (ip), vehicle: saline with Tween-80
[16] = dose: 50.0 mg/kg/injection, schedule: Q01DX009 (ip), vehicle: saline with Tween-80
[17] = dose: 6.25 mg/kg/injection, schedule: Q01DX009 (ip), vehicle: saline with Tween-80
[18] = dose: 60.0 mg/kg/injection, schedule: Q01DX005 (ip), vehicle: Klucel (hydroxypropylcellulose) (HPC)
[19] = dose: 120.0 mg/kg/injection, schedule: Q01DX005 (ip), vehicle: Klucel (hydroxypropylcellulose) (HPC)
[20] = dose: 240.0 mg/kg/injection, schedule: Q01DX005 (ip), vehicle: Klucel (hydroxypropylcellulose) (HPC)
[21] = dose: 25.0 mg/kg/injection, schedule: Q04DX003 (ip), vehicle: saline with Tween-80
[22] = dose: 50.0 mg/kg/injection, schedule: Q04DX003 (ip), vehicle: saline with Tween-80

Measured: T/C

CC1(C)Cc2c(nc3ccccc3c2C(N)=O)-c2ccccc21
inactive: [1] 88 % of control | [2] 88 % of control | [3] 88 % of control

CC1=C/C(=N/OS(=O)(=O)c2ccc(C)cc2)CC(C)(C)C1
inactive: [4] 101 % of control | [5] 92 % of control | [6] 117 % of control

O=[N+]([O-])c1ccccc1NC1CCN(CCCC2(c3ccc(F)cc3)OCCO2)CC1
inactive: [7] 97 % of control | [8] 101 % of control | [9] 99 % of control

Cc1csc(Nc2c3ccccc3nc3ccccc23)n1
inactive: dose: 12.5 mg/kg/injection, schedule: Q04DX002 (ip), vehicle: distilled water + Tween-80 99 % of control | dose: 25.0 mg/kg/injection, schedule: Q04DX002 (ip), vehicle: distilled water + Tween-80 98 % of control | dose: 50.0 mg/kg/injection, schedule: Q04DX002 (ip), vehicle: distilled water + Tween-80 91 % of control | dose: 100.0 mg/kg/injection, schedule: Q04DX002 (ip), vehicle: distilled water + Tween-80 91 % of control | dose: 200.0 mg/kg/injection, schedule: Q04DX002 (ip), vehicle: distilled water + Tween-80 87 % of control | dose: 400.0 mg/kg/injection, schedule: Q04DX002 (ip), vehicle: distilled water + Tween-80 100 % of control

O=C(Nc1cccc(Br)c1)Oc1ccc(Cl)c2cccnc12
inactive: dose: 7.5 mg/kg/injection, schedule: Q01DX005 (ip), vehicle: saline with Tween-80 107 % of control | dose: 15.0 mg/kg/injection, schedule: Q01DX005 (ip), vehicle: saline with Tween-80 103 % of control | dose: 30.0 mg/kg/injection, schedule: Q01DX005 (ip), vehicle: saline with Tween-80 103 % of control and 91 % of control | [7] 100 % of control and 111 % of control | [9] 88 % of control

CN(C)P1(=S)OCC(C(C)(C)C)CN1C (configuration not stated)
inactive: [10] 102 % of control | dose: 200.0 mg/kg/injection, schedule: Q04DX003 (ip), vehicle: saline with Tween-80 112 % of control

CSCCC(NC(=O)CNC(=O)OCc1ccccc1)C(=O)O (configuration not stated)
inactive: dose: 25.0 mg/kg/injection, schedule: Q01DX009 (ip), vehicle: Klucel (hydroxypropylcellulose) (HPC) 94 % of control | [11] 95 % of control | [12] 100 % of control | [13] 93 % of control | dose: 400.0 mg/kg/injection, schedule: Q01DX009 (ip), vehicle: Klucel (hydroxypropylcellulose) (HPC) 87 % of control

O=C(NC(Sc1ccc(Cl)cc1)C(=O)O)c1ccccc1 (configuration not stated)
inactive: [11] 104 % of control | [12] 94 % of control | [13] 94 % of control

CCCCC(NC(=O)OCc1ccccc1)C(=O)NC(C(=O)O)C(C)C (configuration not stated) (Cbz-[Nle]-Val-OH; configuration not given here)
inactive: [1] 99 % of control | [2] 111 % of control | [3] 104 % of control

O=Cc1ccc([N+](=O)[O-])[nH]1
inactive: [14] 92 % of control | [15] 87 % of control | [16] 92 % of control | dose: 100.0 mg/kg/injection, schedule: Q01DX009 (ip), vehicle: saline with Tween-80 86 % of control

CC1=C(C)C(=O)OC1
inactive: dose: 60.0 mg/kg/injection, schedule: Q01DX005 (ip), vehicle: saline 108 % of control | dose: 120.0 mg/kg/injection, schedule: Q01DX005 (ip), vehicle: saline 107 % of control | dose: 240.0 mg/kg/injection, schedule: Q01DX005 (ip), vehicle: saline 101 % of control

CCN(CC)CCNc1ncnc(N)c1C(=C(C)C)c1ccc(Cl)cc1
inactive: [16] 87 % of control

Oc1cc2c3c(c1)-c1c(ccc(O)c1O)CC3NCC2 (configuration not stated)
inactive: dose: 3.13 mg/kg/injection, schedule: Q04DX003 (ip), vehicle: DMSO 99 % of control | dose: 6.25 mg/kg/injection, schedule: Q04DX003 (ip), vehicle: DMSO 103 % of control | dose: 12.5 mg/kg/injection, schedule: Q04DX003 (ip), vehicle: DMSO 109 % of control | dose: 25.0 mg/kg/injection, schedule: Q04DX003 (ip), vehicle: DMSO 110 % of control | dose: 50.0 mg/kg/injection, schedule: Q04DX003 (ip), vehicle: DMSO 117 % of control

C=C1C(=C)C2OC1c1cc3c(cc12)C(=O)C=CC3=O
inactive: dose: 12.5 mg/kg/injection, schedule: Q01DX005 (ip), vehicle: saline with Tween-80 100 % of control | dose: 25.0 mg/kg/injection, schedule: Q01DX005 (ip), vehicle: saline with Tween-80 91 % of control

CCCCCCCCCCCCCC1=NCCN1CCN
inactive: [17] 108 % of control and 94 % of control | [14] 105 % of control and 108 % of control and 109 % of control | [15] 107 % of control and 108 % of control and 111 % of control | [16] 99 % of control and 108 % of control | dose: 50.0 mg/kg/injection, schedule: Q01DX009 (ip), vehicle: saline 96 % of control | dose: 100.0 mg/kg/injection, schedule: Q01DX009 (ip), vehicle: saline 87 % of control

CCN(CC)C1=C(C)C(C(=O)OC)=C(C(=O)OC)C12c1ccccc1-c1ccccc12
inactive: [18] 92 % of control | [19] 92 % of control | [20] 86 % of control

Cc1ccc(S(=O)(=O)OCCOCCOc2ccc3ccccc3c2-c2c(OCCOS(=O)(=O)c3ccc(C)cc3)ccc3ccccc23)cc1
inactive: dose: 100.0 mg/kg/injection, schedule: Q01DX001 (ip), vehicle: saline with Tween-80 89 % of control | dose: 200.0 mg/kg/injection, schedule: Q01DX001 (ip), vehicle: saline with Tween-80 100 % of control

COCC(O)CN1CCN(c2ccccc2C)CC1 (configuration not stated)
inactive: [21] 100 % of control | [22] 100 % of control | [10] 90 % of control

CCN(CC)C(=O)c1cncc(C(N)=O)c1
inactive: [18] 110 % of control | [19] 111 % of control | [20] 101 % of control

O=C=Nc1nc(Cl)c(SC(F)(F)F)c(Cl)n1
inactive: [7] 97 % of control | [8] 98 % of control | [9] 108 % of control

COc1ccccc1N1CCN(CCc2c[nH]c3cc4c(cc23)OCO4)CC1
inactive: [17] 92 % of control | [14] 100 % of control | dose: 12.5 mg/kg/injection, schedule: Q04DX003 (ip), vehicle: saline with Tween-80 114 % of control | dose: 18.75 mg/kg/injection, schedule: Q01DX009 (ip), vehicle: Klucel (hydroxypropylcellulose) (HPC) 108 % of control | [15] 101 % of control | [21] 120 % of control | dose: 37.5 mg/kg/injection, schedule: Q01DX009 (ip), vehicle: Klucel (hydroxypropylcellulose) (HPC) 101 % of control | [16] 104 % of control | [22] 123 % of control | dose: 75.0 mg/kg/injection, schedule: Q01DX009 (ip), vehicle: Klucel (hydroxypropylcellulose) (HPC) 88 % of control | [10] 121 % of control

CCN=Cc1c(O)c(O)c(C(C)C)c2cc(C)c(-c3c(C)cc4c(C(C)C)c(O)c(O)c(C=NCC)c4c3O)c(O)c12
inactive: [4] 86 % of control | [5] 86 % of control | [6] 104 % of control
